These results are taken from patent US10487071B2, “Bis-triazole compounds with anti-biofilm and anti-corrosion properties” (Université de Toulon, priority 2015, dated 2019).

The subject of experiment [1] is Pseudoalteromonas ulvae (TC14). Kind of experiment: Anti-adhesion test, strain TC14. In kind it is cell-based. The conditions noted are these: Pseudoalteromonas ulvae; for activity at 200 µM: 15 h; for EC50: read-out: EC50 (effective concentration to inhibit 50% of the adhesion). An outline of the steps: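 Stationary-phase TC14 cells grown in VNSS, diluted in artificial seawater and incubated with compound at eight concentrations in triplicate (DMSO ≤2%) for about 15 h. Non-adhered bacteria removed and adhered cells quantified by SYTO 61 (1 μM) staining. EC50 derived from sigmoid fit of % inhibition versus log concentration.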

Experiment [2] has as its system Pseudoalteromonas lipolytica (TC8). Kind of experiment: Anti-adhesion test, strain TC8. In kind it is cell-based. The conditions noted are these: Pseudoalteromonas lipolytica; for activity at 200 µM: 15 h, read-out: % of adhesion at 200 μM, TC8; for EC50: read-out: EC50 (effective concentration to inhibit 50% of the adhesion), TC8. In a few lines:
(§1)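 Stationary-phase bacteria grown in VNSS, diluted in artificial sea water and incubated about 15 h with compound at eight concentrations in triplicate, DMSO up to 2%. Adhered cells stained with SYTO 61 (1 μM). EC50 from a sigmoid fit of % inhibition against log concentration.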

Another experiment concerns Paracoccus sp. (4M6). Kind of experiment: Anti-adhesion test, strain 4M6. In kind it is cell-based. Particulars: Paracoccus; for activity at 200 µM: 15 h, read-out: % of adhesion at 200 μM, 4M6; for EC50: read-out: EC50 (effective concentration to inhibit 50% of the adhesion), 4M6. An outline of the steps: as §1
The subject of experiment [3] is marine bacterial strains (TC14, TC8, 4M6, TC5 and TC11). Kind of experiment: Anti-adhesion test, summary over the strains. In kind it is cell-based. The conditions noted are these: read-out: inhibition of the adhesion of at least two marine bacterial strains. Here is the method: Bacterial strains were grown on Väätänen nine-salts solution (VNSS). When the stationary phase was reached, the bacterial suspension was centrifuged. Cells were then diluted in sterile artificial sea water (ASW) and introduced in microtiter plates (sterile black PS; Nunc, Fisher Scientific, France) with the tested compound (at eight concentrations in three replicates) in the presence of three controls: (i) non-specific staining control, (ii) adhesion control, and (iii) positive control. The maximum percentage of solvent (DMSO 2%) used to dilute the tested compound was also tested in triplicate as additional control. After incubation during an optimized adhesion time (moderately 15 h), non-adhered bacteria were eliminated and adhered cells were quantified after SYTO 61 (1 μM) staining. A percentage of inhibition was calculated per well. A sigmoid dose-response curve was obtained by plotting the percentage of inhibition as a function of the log of tested compound concentration, after mean (n=3) and standard deviation (SD) calculation per triplicate for each concentration. EC50 values were then calculated for each compound.
In examples 64 and 65, the following marine bacterial strains are used.

Experiment [4] is described as follows: Gravimetry (weight loss), corrosion inhibition. Particulars: mild steel in 1N HCl. An outline of the steps:
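Mild steel coupons (2.5×2.0×0.1 cm) immersed in non-de-aerated 1N HCl without or with various inhibitor concentrations, then washed, dried and reweighed; duplicate runs. IE (%) calculated from corrosion rates without (CR^o) and with (CR) inhibitor.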

Regarding `Oc1ccc(CCn2cc(-c3ccc(-c4cn(CCc5ccc(O)c(Br)c5)nn4)cc3)nn2)cc1Br` [NT23, 1,4 bis (1-(3-bromo-4-hydroxyphenethyl)-1H-1,2,3-triazol-4-yl) benzene], the activity at 200 µM in experiment [1] was 31 ± 6.1%; in experiment [2], 58.3 ± 8.7%; in the experiment on Paracoccus sp. (4M6), 31.8 ± 3.5%. For the same compound, the values for the EC50 (in experiment [1]; with Paracoccus sp. (4M6)) were 40.9 ± 11.4 µM and 59.9 ± 7.7 µM, respectively. In addition, in experiment [3], the inhibition at 200 µM was no less than 65%.

In the case of `CN(C)CCOc1ccc(CCn2cc(COCc3cn(CCc4ccc(OCCN(C)C)c(Br)c4)nn3)nn2)cc1Br` [AS163, 2-(4-(2-(4-(((1-(4-(2-(dimethylamino)ethoxy)-3-bromophenethyl)-1H-1,2,3-triazol-4-yl)methoxy)methyl)-1H-1,2,3-triazol-1-yl)ethyl)-2-bromophenoxy)-N,N-dimethylethanamine], the activity at 200 µM was found to be 34.8 ± 2.7% in experiment [1], 34.6 ± 5.1% in experiment [2] and 40.4 ± 7.8% in the experiment on Paracoccus sp. (4M6). For the same compound, the EC50 in experiment [1] came to 91.8 ± 17.9 µM; in experiment [2], 102 ± 46.2 µM; with Paracoccus sp. (4M6), 146 ± 81.9 µM. For the same compound, the IE % in experiment [4] (0.1 ppm) came to 82.24%; in experiment [4] (0.3 ppm) it was 89.36%; in experiment [4] (0.5 ppm), 94.54%; in experiment [4] (2 ppm), 96.52%; in experiment [4] (10 ppm) it was 97.07%. In addition, the inhibition at 200 µM in experiment [3] is no less than 65%.

Turning to `Oc1ccc(CCn2cc(CNCc3cn(CCc4ccc(O)c(Br)c4)nn3)nn2)cc1Br` [NT27], the activity at 200 µM in experiment [1] is 29.3 ± 7.5%; in experiment [2], 28.9 ± 17%; in the experiment on Paracoccus sp. (4M6) it was 27.8 ± 16.3%. For the same compound, the results for the EC50 (in experiment [1]; in experiment [2]; in the experiment with Paracoccus sp. (4M6)) were 59.9 ± 27.2 µM, 80.3 ± 18.9 µM and 88.3 ± 46.2 µM, respectively. The inhibition at 200 µM in experiment [3] is no less than 65%.
